In assay [1] the test system is Drosophila. The experiment in a line: Protection against fragile X syndrome phenotypes in Fmr1 null mutant Drosophila Fmr1'3/TM6C assessed as embryo viability at 40 uM at 25 degC by flow cytometry relative to untreated homozygous embryos. The assay is classed as functional. On the technique in general: Flow cytometry measures light scatter and fluorescence of single cells or particles in a stream.

Assay [2] concerns Drosophila. The assay is described as follows: Suppression of glutamate-induced courtship behavior deffect in laboratory prepared food feeded male Fmr1 null mutant Drosophila Fmr1'3/TM6C fragile X syndrome model assessed as courtship behavior towards female flies at 80 uM for 10 mins by courtship index assay. The assay is classed as functional, organism-based.
The subject of assay [3] is Drosophila. The assay is described as follows: Protection against fragile X syndrome phenotypes in laboratory prepared food feeded Fmr1 null mutant Drosophila Fmr1'3/TM6C assessed as homozygous Fmr1-/- embryo viability at 10 uM at 25 degC by flow cytometry relative to untreated homozygous embryos fed with only laboratory prepared food. The assay is classed as functional.

The subject of assay [4] is Drosophila. The experiment in a line: Cytoprotection against glutamate-induced toxicity in laboratory prepared food feeded Fmr1 null mutant Drosophila Fmr1'3/TM6C fragile X syndrome model assessed as embryo viability at 80 uM by flow cytometry relative to untreated embryos. The assay is classed as functional, organism-based.
For assay [5], the system named is Drosophila. The assay is described as follows: Suppression of glutamate-induced beta-lobe midline crossing deffect in mushroom bodies of laboratory prepared food feeded Fmr1 null mutant Drosophila Fmr1'3/TM6C fragile X syndrome model at 80 uM by Fas2 staining based confocal microscopy. The assay is classed as functional, organism-based.
For assay [6], the system named is Drosophila. The assay is described as follows: Cytoprotection against glutamate-induced toxicity in laboratory prepared food feeded Fmr1 null mutant Drosophila Fmr1'3/TM6C fragile X syndrome model assessed as embryo viability at 40 uM by flow cytometry relative to untreated embryos. The assay is classed as functional, organism-based.
Assay [7] deals with Drosophila. The experiment in a line: Cytoprotection against glutamate-induced toxicity in laboratory prepared food feeded Fmr1 null mutant Drosophila Fmr1'3/TM6C fragile X syndrome model assessed as embryo viability at 40 uM in presence of 40 uM GABAB receptor antagonist CGP-54626 by flow cytometry relative to untreated embryos. The assay is classed as functional, organism-based.

Assay [8] concerns Drosophila. The assay is described as follows: Suppression of Futsch protein overexpression in head lysates of laboratory prepared food feeded Fmr1 null mutant Drosophila Fmr1'3/TM6C fragile X syndrome model at 40 uM by Western blot. The assay is classed as functional, organism-based. For orientation: In western blotting, separated proteins are transferred to a membrane and probed.

In assay [9] the test system is Drosophila. The assay is described as follows: Protection against fragile X syndrome phenotypes in laboratory prepared food feeded Fmr1 null mutant Drosophila Fmr1'3/TM6C assessed as homozygous Fmr1-/- embryo viability at 40 uM at 25 degC by flow cytometry relative to untreated homozygous embryos fed with only laboratory prepared food. The assay is classed as functional.

Assay [10] deals with Drosophila. The experiment in a line: Protection against fragile X syndrome phenotypes in laboratory prepared food feeded Fmr1 null mutant Drosophila Fmr1'3/TM6C assessed as homozygous Fmr1-/- embryo viability at 5 uM at 25 degC by flow cytometry relative to untreated homozygous embryos fed with only laboratory prepared food. The assay is classed as functional.
Assay [11] has as its system Drosophila. The assay is described as follows: Suppression of beta-lobe midline crossing deffect in mushroom bodies of laboratory prepared food feeded Fmr1 null mutant Drosophila Fmr1'3/TM6C fragile X syndrome model at by Fas2 staining based confocal microscopy. The assay is classed as functional.
Assay [12] deals with Drosophila. The experiment in a line: Protection against fragile X syndrome phenotypes in laboratory prepared food feeded Fmr1 null mutant Drosophila Fmr1'3/TM6C assessed as homozygous Fmr1-/- embryo viability at 20 uM at 25 degC by flow cytometry relative to untreated homozygous embryos fed with only laboratory prepared food. The assay is classed as functional.
For assay [13], the system named is Drosophila. The experiment in a line: Cytoprotection against glutamate-induced toxicity in laboratory prepared food feeded Fmr1 null mutant Drosophila Fmr1'3/TM6C fragile X syndrome model assessed as embryo viability at 40 uM in presence of GABAB receptor antagonist CGP-54626 by flow cytometry relative to untreated embryos. The assay is classed as functional.

Assay [14] deals with Drosophila. The assay is described as follows: Suppression of glutamate-induced Futsch protein overexpression in head lysates of laboratory prepared food feeded Fmr1 null mutant Drosophila Fmr1'3/TM6C fragile X syndrome model at 40 uM by Western blot. The assay is classed as functional, organism-based.
Assay [15] has as its system Drosophila. The experiment in a line: Suppression of glutamate-induced beta-lobe midline crossing deffect in mushroom bodies of laboratory prepared food feeded Fmr1 null mutant Drosophila Fmr1'3/TM6C fragile X syndrome model at 40 uM by Fas2 staining based confocal microscopy. The assay is classed as functional.
Assay [16] relates to Drosophila. The assay is described as follows: Suppression of glutamate-induced courtship behavior deffect in laboratory prepared food feeded male Fmr1 null mutant Drosophila Fmr1'3/TM6C fragile X syndrome model assessed as courtship behavior towards female flies at 40 uM for 10 mins by courtship index assay. The assay is classed as functional, organism-based.
Assay [17] relates to Drosophila. The experiment in a line: Cytoprotection against glutamate-induced toxicity in laboratory prepared food feeded Fmr1 null mutant Drosophila Fmr1'3/TM6C fragile X syndrome model assessed as genetic segregation ratio at 40 uM by flow cytometry relative to untreated embryos. The assay is classed as functional.
The subject of assay [18] is Drosophila. The assay is described as follows: Suppression of glutamate-induced beta-lobe midline crossing deffect in mushroom bodies of laboratory prepared food feeded Fmr1 null mutant Drosophila Fmr1'3/TM6C fragile X syndrome model assessed as incidence of severe deffects at 40 uM by Fas2 staining based confocal microscopy. The assay is classed as functional.
The test system of assay [19] is Drosophila. The assay is described as follows: Suppression of Futsch protein overexpression in head lysates of laboratory prepared food feeded Fmr1 null mutant Drosophila Fmr1'3/TM6C fragile X syndrome model at 40 uM in presence of Scopolamine by Western blot. The assay is classed as functional, organism-based.

SMILES strings stand for the structures. Calls of active or inactive are those of the source. The rule behind the calls is not given here.

For the compound `Cl.Cl.NNCc1cccc(O)c1`, the Activity with Drosophila [1] was determined as 67%.
Regarding `Cc1cccc(C#Cc2ccccc2)n1`, the result with Drosophila [2], in the assay on Drosophila [4] and in the assay with Drosophila [5] was Active. In addition, the Activity in the assay on Drosophila [3] came to 61.6%.
In the case of `C[C@H](NC[C@H](O)CP(=O)(O)CC1CCCCC1)c1ccc(Cl)c(Cl)c1`, the result in the assay with Drosophila [6] was inactive.
With `CC(=O)N[C@@H](CS)C(=O)O` [ACETYLCYSTEINE], the Activity in the assay with Drosophila [1] amounted to 67%.
Turning to `CN1[C@@H]2CC[C@H]1C[C@@H](OC(c1ccccc1)c1ccccc1N)C2` (stereo not given in full) [AMINOBENZTROPINE], the outcome with Drosophila [7] and in the assay with Drosophila [8] was Active. For the same compound, the Activity in the assay on Drosophila [1] came to 25%; in the assay on Drosophila [9], 66.38%.
With `Cc1cc(O)cc(C)c1Cl` [CHLOROXYLENOL], the Activity in the assay on Drosophila [1] was found to be 42%.
Consider `CCN(CC)CCOc1ccc(C(=C(Cl)c2ccccc2)c2ccccc2)cc1` [CLOMIPHENE], for which the values for the Activity with Drosophila [10] and in the assay with Drosophila [1] were 54.96% and 25%, respectively.
Consider `CN1CC(=O)NC1=N` [CREATININE], for which the Activity in the assay on Drosophila [1] amounted to 58%; in the assay on Drosophila [11], 69%; with Drosophila [9] it was 123.2%. For the same compound, the outcome with Drosophila [8] was Active.
For `C/C=C(/C(=C/C)c1ccc(O)cc1)c1ccc(O)cc1` [DIENESTROL], the results for the Activity in the assay on Drosophila [1] and in the assay on Drosophila [9] were 33% and 71.3%, respectively.
For `Cl.NCCc1ccc(O)c(O)c1` [DOPAMINE HYDROCHLORIDE], the Activity in the assay with Drosophila [1] is 25%.
Regarding `C[C@@H](CO)NC(=O)[C@@H]1C=C2c3cccc4[nH]cc(c34)C[C@H]2N(C)C1.O=C(O)/C=C\C(=O)O` [ERGONOVINE MALEATE], the Activity came out at 69.85% in the assay on Drosophila [12] and 33% in the assay on Drosophila [1].
On to `NCCCC(=O)O` [GAMMA-AMINOBUTYRIC ACID], for which the Activity in the assay on Drosophila [13] is reported as 8%; with Drosophila [1] it was 25%; in the assay with Drosophila [15], 70%; in the assay with Drosophila [17] it was 33%; in the assay on Drosophila [9], 83.1%; in the assay on Drosophila [18], 7%. Besides, the result with Drosophila [14], in the assay on Drosophila [16] and in the assay with Drosophila [6] was Active.
In the case of `O=c1cc(CO)occ1O` [KOJIC ACID], the Activity in the assay on Drosophila [1] amounted to 25%; with Drosophila [3], 73.06%.
Regarding `O=C(O)C1CCCNC1` (stereo not given) [NIPECOTIC ACID], the Activity is given as 58% in the assay with Drosophila [1], 69% in the assay with Drosophila [11] and 84.2% in the assay on Drosophila [9]. Moreover, the outcome in the assay on Drosophila [8] was Active.
For `Cl.NCC(=O)c1ccccc1` [PHENACYLAMINE HYDROCHLORIDE], the Activity in the assay with Drosophila [1] is recorded as 25%.
In the case of `CC[C@@H]1C(=O)OC[C@@H]1Cc1cncn1C.O=[N+]([O-])O` [PILOCARPINE NITRATE], the values for the Activity with Drosophila [10], with Drosophila [1] and in the assay on Drosophila [11] were 68.5%, 33% and 69%, respectively. Moreover, in the assay on Drosophila [19], the outcome was inactive. In addition, the result in the assay on Drosophila [8] was Active.
As to `COC(=O)[C@H]1[C@H]2C[C@@H]3c4[nH]c5cc(OC)ccc5c4CCN3C[C@H]2C[C@@H](OC(=O)c2cc(OC)c(OC)c(OC)c2)[C@@H]1OC` [RESERPINE], the Activity in the assay with Drosophila [1] is recorded as 25%.

The record behind these values is ChEMBL document CHEMBL1212701, “Identification of small molecules rescuing fragile X syndrome phenotypes in Drosophila” (2008).
